# Measured values: patent publication US8329704B2, “Substituted pyrazinone derivatives for use in MCH-1 mediated diseases” (Janssen Pharmaceutica, N.V., priority 2005, dated 2012)
# Target: T1, human MCH-1 receptor (Homo sapiens, UniProt Q99705)
# T1 construct: expressed in transfected cells
# Assay: Ca2+ mobilization experiment for the MCH-1 receptor (FLIPR), inhibition of MCH-induced Ca2+ mobilization
# Format: cell-based
# Details: CHO cells stably expressing human MCH-1 receptor, inhibition of MCH-induced Ca2+ response, read-out: MCH-1 pIC50 (converted)
# Method: The interaction of the compounds of Formula (I) with MCH-1 receptors was assessed in in vitro transient calcium (Ca^2+) mobilization assays in the fluorimetric imaging plate reader (FLIPR) format (Sullivan et al. 1999, Methods Mol Biol 114:125-133). In general, the natural agonist (MCH) is incubated with cells expressing the MCH-1 receptor, which elicits a concentration-dependent transient mobilization of Ca^2+ from internal stores. The interaction of the test compounds with the receptor is assessed in competition experiments. Various concentrations of the test compound are added to the incubation mixture containing the receptor-expressing cells and a submaximal concentration of MCH. The test compound in proportion to its antagonist potency and its concentration inhibits MCH-induced Ca^2+ mobilization.
# Chinese Hamster ovary cells (CHO) stably expressing the human MCH-1 receptor are grown in a 1:1 mixture of Dulbecco's Modified Eagles Medium (DMEM) and HAM's F12 medium including Glutamax™ (Invitrogen), supplemented with 10% heat-inactivated fetal bovine serum and 400 μg/ml geneticin.
# Twenty-four hours before the experiment, MCH-1 receptor-expressing CHO cells are seeded in 20 μl (5,000 cells per well) into 384-well black wall, clear bottom microtiter plates (Costar). On the day of the experiment, 20 μl per well calcium assay kit containing 10 mM probenicide (Molecular Devices) is added. Cells are loaded for 90 min at 37° C. and 5% CO2 in a cell culture incubator. After loading, 20 μl of serial dilutions of the test compound are added and cells are further incubated for 20 min at room temperature in the dark. After 20 min, 20 μl of a submaximal MCH concentration is added and changes in intracellular calcium are recorded directly in a FLIPR III apparatus (Molecular devices).
# Data from assays in the presence of compound were calculated as a percentage of total Ca^2+-responses measured in the absence of test compound. Inhibition curves, plotting percent of total Ca^2+-responses versus the log value of the concentration of the test compound, were automatically generated, and sigmoidal inhibition curves were fitted using non-linear regression. The pIC50 values of test compounds were derived from individual curves.
# T1 sequence (Q99705 whole entry): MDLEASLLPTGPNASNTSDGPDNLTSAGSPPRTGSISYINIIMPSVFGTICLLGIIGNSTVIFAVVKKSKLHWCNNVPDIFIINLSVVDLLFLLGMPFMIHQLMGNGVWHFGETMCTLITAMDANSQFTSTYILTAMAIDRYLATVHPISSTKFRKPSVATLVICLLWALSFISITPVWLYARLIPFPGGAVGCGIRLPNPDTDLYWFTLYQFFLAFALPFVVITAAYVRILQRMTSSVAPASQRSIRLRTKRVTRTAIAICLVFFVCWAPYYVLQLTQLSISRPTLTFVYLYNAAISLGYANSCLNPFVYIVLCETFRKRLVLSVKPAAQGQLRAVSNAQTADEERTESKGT
row,Compound,IC50 [nM]
1,COc1cc(-n2ccnc(NCCc3ccccc3)c2=O)ccc1OCCN1CCCC1C(N)=O (stereo not drawn) [3-48],79.4
2,COc1cc(-n2ccnc(NCCc3ccccc3)c2=O)ccc1OCCN1CCCC(CO)C1 (stereo not drawn) [3-49],31.6
3,COc1cc(-n2ccnc(NCCc3ccccc3)c2=O)ccc1OCCN1CCC(C#N)CC1 [3-51],39.8
4,COc1cc(-n2ccnc(NCCc3ccccc3)c2=O)ccc1OCCN1CCCC(C(N)=O)C1 (stereo not drawn) [3-52],39.8
5,COc1cc(-n2ccnc(NCCc3ccccc3)c2=O)ccc1OCCN1CCC(C(N)=O)CC1 [3-53],50.1
6,COc1cc(-n2ccnc(NCCc3ccccc3)c2=O)ccc1OCCN1CCC(C(=O)NC2CC2)CC1 [3-54],20
7,COc1cc(-n2ccnc(NCCc3ccccc3)c2=O)ccc1OCCN1CCC(C(=O)N2CCCC2)CC1 [3-55],25.1
8,COc1cc(-n2ccnc(NCCc3ccccc3)c2=O)ccc1OCCN1CCC(F)(F)CC1 [3-56],39.8
9,COc1cc(-n2ccnc(NCCc3ccccc3)c2=O)ccc1OCCN1CCC2(CC1)OCCO2 [3-58],50.1
10,COc1cc(-n2ccnc(NCCc3ccccc3)c2=O)ccc1OCCN1CCOCC1 [3-59],50.1
11,COc1cc(-n2ccnc(NCCc3ccccc3)c2=O)ccc1OCCN1CCOC[C@@H]1C [3-60],63.1
12,COc1cc(-n2ccnc(NCCc3ccccc3)c2=O)ccc1OCCN1CC(C)OC(C)C1 (stereo not drawn) [3-63],158
13,COc1cc(-n2ccnc(NCCc3ccccc3)c2=O)ccc1OCCN1CCOC(CO)C1 (stereo not drawn) [3-64],100
14,COc1cc(-n2ccnc(NCCc3ccccc3)c2=O)ccc1OCCN1CCNC(=O)C1 [3-65],158
15,COc1cc(-n2ccnc(NCCc3ccccc3)c2=O)ccc1OCCCN1CCC(F)(F)CC1 [3-74],31.6
16,O=c1c(NCCc2ccccc2)nccn1-c1ccc(N2CCNCC2)c(Cl)c1 [3-77],100
17,CN1CCN(c2ccc(-n3ccnc(NCCc4ccccc4)c3=O)cc2Cl)CC1 [3-78],50.1
18,O=c1c(NCCc2ccccc2)nccn1-c1ccc(N2CCN(CCO)CC2)c(Cl)c1 [3-79],63.1
19,COCCN1CCN(c2ccc(-n3ccnc(NCCc4ccccc4)c3=O)cc2Cl)CC1 [3-80],79.4
20,CN1CCN(CCOc2ccc(-n3ccnc(NCCc4ccccc4)c3=O)cc2Cl)CC1 [3-82],50.1
21,CN(C)CCN1CCc2cc(-n3ccnc(NCCOc4ccccc4)c3=O)ccc21 [3-84],79.4
22,O=c1c(NCCOc2ccccc2)nccn1-c1ccc2c(cnn2CCN2CCCC2)c1 [3-85],398
23,O=c1c(NCCc2ccccc2)nccn1-c1ccc2nc(N3CCCCC3)ccc2c1 [3-87],200

# Results, then the compound that gave them:
row,IC50 [nM],Compound
1,63.1,COc1cc(-n2ccnc(NCCc3ccccc3)c2=O)ccc1OCCN1CC[C@@H](F)C1 [3-47]
2,20,COc1cc(-n2ccnc(NCCc3ccccc3)c2=O)ccc1OCCN1CCC(F)CC1 [3-50]
3,31.6,COc1cc(-n2ccnc(NCCc3ccccc3)c2=O)ccc1OCCN1[C@H](C)CCC[C@@H]1C [3-57]
4,79.4,COc1cc(-n2ccnc(NCCc3ccccc3)c2=O)ccc1OCCN1CCOC[C@H]1C [3-61]
5,39.8,COc1cc(-n2ccnc(NCCc3ccccc3)c2=O)ccc1OCCN1C(C)COCC1C (stereo not drawn) [3-62]
6,126,COc1cc(-n2ccnc(NCCc3ccccc3)c2=O)ccc1OCCCNC(C)=O [3-66]
7,126,COc1cc(-n2ccnc(NCCc3ccccc3)c2=O)ccc1OCCCNC(=O)C(C)C [3-67]
8,39.8,COc1cc(-n2ccnc(NCCc3ccccc3)c2=O)ccc1OCCCN(C)C1CC1 [3-68]
9,126,COc1cc(-n2ccnc(NCCc3ccccc3)c2=O)ccc1OCCCNC(=O)C1CC1 [3-69]
10,50.1,COc1cc(-n2ccnc(NCCc3ccccc3)c2=O)ccc1OCCCN1CCC(O)C1 (stereo not drawn) [3-70]
11,39.8,COc1cc(-n2ccnc(NCCc3ccccc3)c2=O)ccc1OCCCN1CCCC(CO)C1 (stereo not drawn) [3-71]
12,25.1,COc1cc(-n2ccnc(NCCc3ccccc3)c2=O)ccc1OCCCN1CCC(F)CC1 [3-72]
13,39.8,COc1cc(-n2ccnc(NCCc3ccccc3)c2=O)ccc1OCCCN1CCC(C#N)CC1 [3-73]
